Where two headings read alike, the source gives them in different places.
Test system: 134 cancer cell lines
Assay: Cell viability assay (ATPlite, 72 hours), IC50 on cancer cell line panel

FC(F)(F)c1ccc(CNc2ccc(Cc3c[nH]c4ncc(Cl)cc34)cn2)cn1 [pexidartinib]
IC50 (HEC-6, read-out: IC50 in cell proliferation assay, HEC-6 cell line (EGFR p.A289V)): > 31.6 µM | IC50 (Homo sapiens, 769-P, read-out: IC50 in cell proliferation assay, cell line 769-P): > 31.6 µM | IC50 (Homo sapiens, 786-0, read-out: IC50 in cell proliferation assay, cell line 786-O): > 31.6 µM | IC50 (Homo sapiens, A 172, read-out: IC50 in cell proliferation assay, cell line A-172): > 31.6 µM | IC50 (Homo sapiens, A204, read-out: IC50 in cell proliferation assay, cell line A-204): 0.935 µM | IC50 (Homo sapiens, A498, read-out: IC50 in cell proliferation assay, cell line A-498): > 31.6 µM | IC50 (Homo sapiens, A549, read-out: IC50 in cell proliferation assay, cell line A-549): > 31.6 µM | IC50 (Homo sapiens, A704, read-out: IC50 in cell proliferation assay, cell line A-704): > 31.6 µM | IC50 (Homo sapiens, A-375, read-out: IC50 in cell proliferation assay, cell line A-375 (BRAF p.V600E)): > 31.6 µM | IC50 (Homo sapiens, A-427, read-out: IC50 in cell proliferation assay, cell line A-427): 24.1 µM | IC50 (Homo sapiens, ACHN, read-out: IC50 in cell proliferation assay, cell line ACHN): > 31.6 µM | IC50 (Homo sapiens, AN3-CA, read-out: IC50 in cell proliferation assay, cell line AN3-CA (FGFR2 p.N549K)): 25.3 µM | IC50 (Homo sapiens, ASPC1, read-out: IC50 in cell proliferation assay, cell line AsPC-1): > 31.6 µM | IC50 (Homo sapiens, AU565, read-out: IC50 in cell proliferation assay, cell line AU565 (ERBB2 amplification)): 25.4 µM | IC50 (Homo sapiens, BT-20, read-out: IC50 in cell proliferation assay, cell line BT-20): > 31.6 µM | IC50 (Homo sapiens, BT-474, read-out: IC50 in cell proliferation assay, cell line BT-474 (ERBB2 amplification)): > 31.6 µM | IC50 (Homo sapiens, BT-549, read-out: IC50 in cell proliferation assay, cell line BT-549): > 31.6 µM | IC50 (Homo sapiens, BXPC-3, read-out: IC50 in cell proliferation assay, cell line BxPC-3): > 31.6 µM | IC50 (Homo sapiens, C-33-A, read-out: IC50 in cell proliferation assay, cell line C-33 A): > 31.6 µM | IC50 (Homo sapiens, CAL-27, read-out: IC50 in cell proliferation assay, cell line CAL-27): > 31.6 µM | IC50 (Homo sapiens, CCF-STTG1, read-out: IC50 in cell proliferation assay, cell line CCF-STTG1): > 31.6 µM | IC50 (Homo sapiens, CCRF-CEM, read-out: IC50 in cell proliferation assay, cell line CCRF-CEM): > 31.6 µM | IC50 (Homo sapiens, COLO 205, read-out: IC50 in cell proliferation assay, cell line COLO 205 (BRAF p.V600E)): > 31.6 µM | IC50 (Homo sapiens, COLO-829, read-out: IC50 in cell proliferation assay, cell line COLO 829 (BRAF p.V600E)): > 31.6 µM | IC50 (Homo sapiens, DLD-1, read-out: IC50 in cell proliferation assay, cell line DLD-1): > 31.6 µM | IC50 (Homo sapiens, DU-4475, read-out: IC50 in cell proliferation assay, cell line DU4475 (BRAF p.V600E)): > 31.6 µM | IC50 (Homo sapiens, Daoy, read-out: IC50 in cell proliferation assay, cell line Daoy): > 31.6 µM | IC50 (Homo sapiens, DoTc2-4510, read-out: IC50 in cell proliferation assay, cell line DoTc2 4510): > 31.6 µM | IC50 (Homo sapiens, EOL1, read-out: IC50 in cell proliferation assay, cell line EoL-1 (FIP1L1-PDGFRA)): 0.01 µM | IC50 (Homo sapiens, FaDu, read-out: IC50 in cell proliferation assay, cell line FaDu): > 31.6 µM | IC50 (Homo sapiens, G-361, read-out: IC50 in cell proliferation assay, cell line G-361 (BRAF p.V600E)): 23.6 µM | IC50 (Homo sapiens, HCC827, read-out: IC50 in cell proliferation assay, cell line HCC827 (EGFR exon19del)): > 31.6 µM | IC50 (Homo sapiens, HCC4006, read-out: IC50 in cell proliferation assay, cell line HCC4006 (EGFR exon19del)): > 31.6 µM | IC50 (Homo sapiens, HCT-15, read-out: IC50 in cell proliferation assay, cell line HCT 15): > 31.6 µM | IC50 (Homo sapiens, HCT-116, read-out: IC50 in cell proliferation assay, cell line HCT 116): > 31.6 µM | IC50 (Homo sapiens, HEC-1, read-out: IC50 in cell proliferation assay, HEC-1 cell line): > 31.6 µM | IC50 (Homo sapiens, HEC-1B, read-out: IC50 in cell proliferation assay, HEC-1-B cell line (EGFR p.A864V)): > 31.6 µM | IC50 (Homo sapiens, HL-60, read-out: IC50 in cell proliferation assay, HL-60 cell line): > 31.6 µM | IC50 (Homo sapiens, HT, read-out: IC50 in cell proliferation assay, HT cell line): > 31.6 µM | IC50 (Homo sapiens, HT-1080, read-out: IC50 in cell proliferation assay, HT-1080 cell line): > 31.6 µM | IC50 (Homo sapiens, Hs746T, read-out: IC50 in cell proliferation assay, Hs 746.T cell line (MET exon14skip + amplification)): > 31.6 µM | IC50 (Homo sapiens, Hs-578T, read-out: IC50 in cell proliferation assay, Hs 578T cell line): 25.7 µM | IC50 (Homo sapiens, HuTu80, read-out: IC50 in cell proliferation assay, HuTu 80 cell line): 22.8 µM | IC50 (Homo sapiens, J82, read-out: IC50 in cell proliferation assay, J82 cell line): > 31.6 µM | IC50 (Homo sapiens, Jurkat E6.1, read-out: IC50 in cell proliferation assay, Jurkat E6.1 cell line): > 31.6 µM | IC50 (Homo sapiens, K562, read-out: IC50 in cell proliferation assay, K-562 cell line): > 31.6 µM | IC50 (Homo sapiens, KATO III, read-out: IC50 in cell proliferation assay, KATO III cell line (FGFR2 amplification)): 10.1 µM | IC50 (Homo sapiens, KG-1, read-out: IC50 in cell proliferation assay, KG-1 cell line (FGFR1OP2-FGFR1)): 7.51 µM | IC50 (Homo sapiens, KLE, read-out: IC50 in cell proliferation assay, KLE cell line): > 31.6 µM | IC50 (Homo sapiens, KMS-11, read-out: IC50 in cell proliferation assay, KMS-11 cell line (FGFR3 p.Y373C)): > 31.6 µM | IC50 (Homo sapiens, KU812, read-out: IC50 in cell proliferation assay, Ku812 cell line): > 31.6 µM | IC50 (Homo sapiens, Kasumi 1, read-out: IC50 in cell proliferation assay, Kasumi-1 cell line (KIT p.N822K)): 0.228 µM | IC50 (Homo sapiens, LC-2-ad, read-out: IC50 in cell proliferation assay, LC-2/ad cell line (CCDC6-RET)): > 31.6 µM | IC50 (Homo sapiens, LNCaP-Clone-FGC, read-out: IC50 in cell proliferation assay, LNCaP clone FGC cell line): > 31.6 µM | IC50 (Homo sapiens, LS174T, read-out: IC50 in cell proliferation assay, LS174T cell line): > 31.6 µM | IC50 (Homo sapiens, LS-411N, read-out: IC50 in cell proliferation assay, LS411N cell line (BRAF p.V600E)): > 31.6 µM | IC50 (Homo sapiens, LoVo, read-out: IC50 in cell proliferation assay, LoVo cell line): > 31.6 µM | IC50 (Homo sapiens, MCF7, read-out: IC50 in cell proliferation assay, MCF-7 cell line): 18.1 µM | IC50 (Homo sapiens, MDA-MB-231, read-out: IC50 in cell proliferation assay, MDA-MB-231 cell line): > 31.6 µM | IC50 (Homo sapiens, MDA-MB-453, read-out: IC50 in cell proliferation assay, MDA-MB-453 cell line): > 31.6 µM | IC50 (Homo sapiens, MDA-MB-468, read-out: IC50 in cell proliferation assay, MDA-MB-468 cell line): > 31.6 µM | IC50 (Homo sapiens, MG-63, read-out: IC50 in cell proliferation assay, MG-63 cell line): > 31.6 µM | IC50 (Homo sapiens, MIA PaCa-2, read-out: IC50 in cell proliferation assay, MIA PaCa-2 cell line): > 31.6 µM | IC50 (Homo sapiens, MKN-45, read-out: IC50 in cell proliferation assay, MKN45 cell line (MET amplification)): > 31.6 µM | IC50 (Homo sapiens, MOLM-13, read-out: IC50 in cell proliferation assay, MOLM-13 cell line (FLT3 ITD)): 0.191 µM | IC50 (Homo sapiens, MOLT-4, read-out: IC50 in cell proliferation assay, MOLT-4 cell line): > 31.6 µM

Reference: article PMC9516332 (Frontiers in Oncology, 2022)
